# Test results reported in ChEMBL document CHEMBL5465560, “Selectivity Literature for EUbOPEN Chemogenomic Library” (2024).
# Assays:
# [1] = target: T1, Ephrin type-A receptor 3 (Homo sapiens) (UniProt P29320); assay: Selectivity interaction (Ambit KINOMEscan and KiNATiv profiling in Jurkat cells) EUB0000090b EPHA3; assay type: cell-based; conditions: at 1 µM
# T1 sequence (whole entry): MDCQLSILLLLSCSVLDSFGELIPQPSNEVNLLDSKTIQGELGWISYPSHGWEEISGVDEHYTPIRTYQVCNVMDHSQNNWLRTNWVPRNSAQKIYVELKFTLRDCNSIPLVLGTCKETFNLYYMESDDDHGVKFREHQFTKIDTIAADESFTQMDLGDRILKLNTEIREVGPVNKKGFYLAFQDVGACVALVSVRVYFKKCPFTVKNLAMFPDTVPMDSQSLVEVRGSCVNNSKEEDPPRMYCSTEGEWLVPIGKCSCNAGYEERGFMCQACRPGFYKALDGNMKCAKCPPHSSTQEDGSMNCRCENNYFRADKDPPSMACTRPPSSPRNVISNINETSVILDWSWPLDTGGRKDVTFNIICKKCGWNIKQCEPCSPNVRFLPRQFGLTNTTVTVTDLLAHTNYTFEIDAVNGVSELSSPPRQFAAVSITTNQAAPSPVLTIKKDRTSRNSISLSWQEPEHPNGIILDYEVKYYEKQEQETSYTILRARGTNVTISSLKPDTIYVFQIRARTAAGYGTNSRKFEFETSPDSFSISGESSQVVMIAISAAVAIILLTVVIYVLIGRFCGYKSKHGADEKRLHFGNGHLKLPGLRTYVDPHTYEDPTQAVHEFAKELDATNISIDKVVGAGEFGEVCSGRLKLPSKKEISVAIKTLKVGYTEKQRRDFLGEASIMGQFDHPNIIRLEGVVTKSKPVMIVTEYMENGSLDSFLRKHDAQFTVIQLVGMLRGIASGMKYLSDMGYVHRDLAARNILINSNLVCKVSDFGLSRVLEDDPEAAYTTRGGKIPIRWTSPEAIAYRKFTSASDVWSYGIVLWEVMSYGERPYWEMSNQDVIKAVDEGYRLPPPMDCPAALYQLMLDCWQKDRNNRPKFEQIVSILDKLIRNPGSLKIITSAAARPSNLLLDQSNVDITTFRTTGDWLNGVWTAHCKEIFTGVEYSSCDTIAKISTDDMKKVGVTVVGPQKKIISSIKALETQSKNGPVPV
# [2] = target: Histone-lysine N-methyltransferase, H3 lysine-36 specific (Homo sapiens) (UniProt Q96L73); assay: Selectivity interaction (Methyltransferase screen (Scintillation proximity assays)) EUB0000255b NSD1; conditions: at 1 µM
# [3] = target: T2, Ankyrin repeat and protein kinase domain-containing protein 1 (Homo sapiens) (UniProt Q8NFD2); assay: Selectivity interaction (KinomeScan (DiscoverX)) EUB0000655a ANKK1; conditions: at 10 µM
# T2 sequence (whole entry): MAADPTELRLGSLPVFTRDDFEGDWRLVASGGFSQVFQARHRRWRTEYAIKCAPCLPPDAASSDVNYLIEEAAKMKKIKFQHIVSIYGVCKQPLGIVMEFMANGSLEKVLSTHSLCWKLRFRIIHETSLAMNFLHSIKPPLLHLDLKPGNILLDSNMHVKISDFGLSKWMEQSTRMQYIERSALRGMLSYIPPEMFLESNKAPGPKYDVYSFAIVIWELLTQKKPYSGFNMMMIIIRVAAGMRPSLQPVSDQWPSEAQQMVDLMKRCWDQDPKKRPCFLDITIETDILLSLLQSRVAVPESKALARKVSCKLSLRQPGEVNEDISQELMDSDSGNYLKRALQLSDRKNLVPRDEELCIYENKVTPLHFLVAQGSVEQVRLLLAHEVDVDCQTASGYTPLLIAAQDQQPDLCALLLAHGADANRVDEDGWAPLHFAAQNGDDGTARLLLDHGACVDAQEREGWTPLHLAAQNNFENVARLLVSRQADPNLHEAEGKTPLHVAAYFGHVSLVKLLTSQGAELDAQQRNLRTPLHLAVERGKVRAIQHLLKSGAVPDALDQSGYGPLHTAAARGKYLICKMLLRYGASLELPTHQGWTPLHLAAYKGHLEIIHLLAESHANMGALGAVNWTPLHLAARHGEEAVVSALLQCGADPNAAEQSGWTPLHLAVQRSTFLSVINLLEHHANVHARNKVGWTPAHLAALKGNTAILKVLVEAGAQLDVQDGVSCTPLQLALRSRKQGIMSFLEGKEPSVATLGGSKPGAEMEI
# [4] = test system: Mast/stem cell growth factor receptor Kit (Homo sapiens), P10721 [L576P]; assay: Selectivity interaction (KinomeScan (DiscoverX)) EUB0000618a KIT; conditions: at 10 µM
# [5] = target: Tyrosine-protein kinase JAK2 (Homo sapiens, UniProt O60674); assay: Selectivity interaction (ActivX KiNativ screen (ex vivo kinase selectivity in human PBMCs)) EUB0001619a JAK2; assay type: cell-based; conditions: PBMC, at 1 µM
# [6] = target: Non-receptor tyrosine-protein kinase TYK2 (Homo sapiens, UniProt P29597); assay: Selectivity interaction (ActivX KiNativ screen (kinase selectivity in THP-1 cell lysates)) EUB0000639a TYK2; assay type: subcellular; conditions: lysate
# [7] = target: T3, Protein kinase C iota type (Homo sapiens) (UniProt P41743); assay: Selectivity interaction (ProQinase) EUB0000171b PRKCI
# T3 sequence (whole entry): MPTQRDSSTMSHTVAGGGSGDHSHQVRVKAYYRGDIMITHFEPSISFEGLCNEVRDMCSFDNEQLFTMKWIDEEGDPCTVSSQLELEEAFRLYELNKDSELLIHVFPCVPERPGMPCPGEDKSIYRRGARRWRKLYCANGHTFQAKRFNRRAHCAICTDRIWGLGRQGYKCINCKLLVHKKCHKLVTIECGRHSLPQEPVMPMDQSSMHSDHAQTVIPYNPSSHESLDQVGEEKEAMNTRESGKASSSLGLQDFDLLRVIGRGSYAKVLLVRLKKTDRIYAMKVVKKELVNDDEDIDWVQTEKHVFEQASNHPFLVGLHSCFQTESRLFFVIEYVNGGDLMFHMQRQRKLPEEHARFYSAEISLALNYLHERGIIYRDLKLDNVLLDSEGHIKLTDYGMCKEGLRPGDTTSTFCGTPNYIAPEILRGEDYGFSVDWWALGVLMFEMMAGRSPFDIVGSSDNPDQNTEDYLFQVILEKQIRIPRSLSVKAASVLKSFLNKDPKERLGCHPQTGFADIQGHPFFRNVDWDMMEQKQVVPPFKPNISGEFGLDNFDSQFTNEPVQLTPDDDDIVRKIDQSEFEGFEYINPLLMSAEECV
# [8] = target: 5'-AMP-activated protein kinase catalytic subunit alpha-2 (Homo sapiens) (UniProt P54646); assay: Selectivity interaction (KinomeScan (DiscoverX)) EUB0000092b PRKAA2; conditions: at 10 µM
# [9] = target: Serine/threonine-protein kinase 38-like (Homo sapiens) (UniProt Q9Y2H1); assay: Selectivity interaction (KinomeScan (DiscoverX)) EUB0000695a STK38L; conditions: at 100 nM
# Serine/threonine-protein kinase 38-like (Homo sapiens), sequence (Q9Y2H1 2-464 limits assumed): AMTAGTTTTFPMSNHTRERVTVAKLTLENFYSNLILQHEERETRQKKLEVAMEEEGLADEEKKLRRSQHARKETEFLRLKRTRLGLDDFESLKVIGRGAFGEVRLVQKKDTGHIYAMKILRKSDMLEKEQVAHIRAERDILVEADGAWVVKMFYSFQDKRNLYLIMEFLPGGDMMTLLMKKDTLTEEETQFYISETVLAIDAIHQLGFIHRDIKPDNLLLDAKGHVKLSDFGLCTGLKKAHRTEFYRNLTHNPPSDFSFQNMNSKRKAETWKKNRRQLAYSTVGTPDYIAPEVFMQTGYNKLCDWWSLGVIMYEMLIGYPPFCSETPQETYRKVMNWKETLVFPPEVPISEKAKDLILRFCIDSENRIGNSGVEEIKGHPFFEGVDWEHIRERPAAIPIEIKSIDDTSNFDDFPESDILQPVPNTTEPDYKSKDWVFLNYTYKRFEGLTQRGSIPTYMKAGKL
# Non-receptor tyrosine-protein kinase TYK2, sequence (P29597 whole entry): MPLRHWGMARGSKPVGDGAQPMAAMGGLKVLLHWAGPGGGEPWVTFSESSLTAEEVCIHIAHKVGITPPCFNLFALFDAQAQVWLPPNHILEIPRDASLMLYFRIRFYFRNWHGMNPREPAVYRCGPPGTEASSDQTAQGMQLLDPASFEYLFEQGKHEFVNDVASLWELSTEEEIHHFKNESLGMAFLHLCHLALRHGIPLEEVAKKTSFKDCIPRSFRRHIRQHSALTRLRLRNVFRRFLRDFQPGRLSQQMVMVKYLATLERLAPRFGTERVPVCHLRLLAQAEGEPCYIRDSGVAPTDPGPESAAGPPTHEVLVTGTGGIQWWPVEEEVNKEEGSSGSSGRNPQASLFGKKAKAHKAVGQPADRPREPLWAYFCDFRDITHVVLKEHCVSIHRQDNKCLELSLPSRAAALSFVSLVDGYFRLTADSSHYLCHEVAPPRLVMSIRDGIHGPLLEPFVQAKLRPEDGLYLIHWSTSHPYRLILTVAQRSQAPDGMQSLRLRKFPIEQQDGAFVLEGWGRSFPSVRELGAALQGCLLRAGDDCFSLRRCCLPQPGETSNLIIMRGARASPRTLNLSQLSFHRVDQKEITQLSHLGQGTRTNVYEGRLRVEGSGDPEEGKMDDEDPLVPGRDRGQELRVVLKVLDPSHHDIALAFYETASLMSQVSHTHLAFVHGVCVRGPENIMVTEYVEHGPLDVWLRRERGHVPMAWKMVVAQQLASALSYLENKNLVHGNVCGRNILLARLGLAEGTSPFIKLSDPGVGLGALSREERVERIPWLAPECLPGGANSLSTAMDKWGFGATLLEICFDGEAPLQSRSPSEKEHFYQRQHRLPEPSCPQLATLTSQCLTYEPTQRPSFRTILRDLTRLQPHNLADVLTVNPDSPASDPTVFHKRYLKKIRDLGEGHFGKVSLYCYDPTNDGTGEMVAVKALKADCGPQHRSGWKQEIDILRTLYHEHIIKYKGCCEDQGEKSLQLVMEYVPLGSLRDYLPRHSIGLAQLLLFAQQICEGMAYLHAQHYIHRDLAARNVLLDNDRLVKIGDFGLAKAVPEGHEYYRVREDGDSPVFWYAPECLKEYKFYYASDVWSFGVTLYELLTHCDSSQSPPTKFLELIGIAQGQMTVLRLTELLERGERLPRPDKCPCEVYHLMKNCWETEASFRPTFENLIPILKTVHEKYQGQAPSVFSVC
# 5'-AMP-activated protein kinase catalytic subunit alpha-2 (Homo sapiens), sequence (P54646 whole entry, looked up): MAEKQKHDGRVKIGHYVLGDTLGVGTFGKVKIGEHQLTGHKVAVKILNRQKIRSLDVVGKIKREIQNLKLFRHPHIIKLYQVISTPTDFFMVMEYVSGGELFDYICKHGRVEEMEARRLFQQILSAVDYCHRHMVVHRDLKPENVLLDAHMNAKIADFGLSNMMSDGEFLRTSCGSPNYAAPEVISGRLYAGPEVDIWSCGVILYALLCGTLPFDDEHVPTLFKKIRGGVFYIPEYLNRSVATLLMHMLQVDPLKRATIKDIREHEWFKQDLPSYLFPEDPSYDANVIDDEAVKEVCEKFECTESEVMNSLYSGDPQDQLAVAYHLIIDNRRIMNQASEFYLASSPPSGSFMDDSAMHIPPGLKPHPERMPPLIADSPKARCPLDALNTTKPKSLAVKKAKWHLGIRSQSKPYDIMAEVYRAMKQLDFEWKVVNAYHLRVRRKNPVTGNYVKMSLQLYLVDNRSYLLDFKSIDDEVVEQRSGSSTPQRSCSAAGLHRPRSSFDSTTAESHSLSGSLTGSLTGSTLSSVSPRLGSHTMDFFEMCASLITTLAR
# Tyrosine-protein kinase JAK2, sequence (O60674 whole entry): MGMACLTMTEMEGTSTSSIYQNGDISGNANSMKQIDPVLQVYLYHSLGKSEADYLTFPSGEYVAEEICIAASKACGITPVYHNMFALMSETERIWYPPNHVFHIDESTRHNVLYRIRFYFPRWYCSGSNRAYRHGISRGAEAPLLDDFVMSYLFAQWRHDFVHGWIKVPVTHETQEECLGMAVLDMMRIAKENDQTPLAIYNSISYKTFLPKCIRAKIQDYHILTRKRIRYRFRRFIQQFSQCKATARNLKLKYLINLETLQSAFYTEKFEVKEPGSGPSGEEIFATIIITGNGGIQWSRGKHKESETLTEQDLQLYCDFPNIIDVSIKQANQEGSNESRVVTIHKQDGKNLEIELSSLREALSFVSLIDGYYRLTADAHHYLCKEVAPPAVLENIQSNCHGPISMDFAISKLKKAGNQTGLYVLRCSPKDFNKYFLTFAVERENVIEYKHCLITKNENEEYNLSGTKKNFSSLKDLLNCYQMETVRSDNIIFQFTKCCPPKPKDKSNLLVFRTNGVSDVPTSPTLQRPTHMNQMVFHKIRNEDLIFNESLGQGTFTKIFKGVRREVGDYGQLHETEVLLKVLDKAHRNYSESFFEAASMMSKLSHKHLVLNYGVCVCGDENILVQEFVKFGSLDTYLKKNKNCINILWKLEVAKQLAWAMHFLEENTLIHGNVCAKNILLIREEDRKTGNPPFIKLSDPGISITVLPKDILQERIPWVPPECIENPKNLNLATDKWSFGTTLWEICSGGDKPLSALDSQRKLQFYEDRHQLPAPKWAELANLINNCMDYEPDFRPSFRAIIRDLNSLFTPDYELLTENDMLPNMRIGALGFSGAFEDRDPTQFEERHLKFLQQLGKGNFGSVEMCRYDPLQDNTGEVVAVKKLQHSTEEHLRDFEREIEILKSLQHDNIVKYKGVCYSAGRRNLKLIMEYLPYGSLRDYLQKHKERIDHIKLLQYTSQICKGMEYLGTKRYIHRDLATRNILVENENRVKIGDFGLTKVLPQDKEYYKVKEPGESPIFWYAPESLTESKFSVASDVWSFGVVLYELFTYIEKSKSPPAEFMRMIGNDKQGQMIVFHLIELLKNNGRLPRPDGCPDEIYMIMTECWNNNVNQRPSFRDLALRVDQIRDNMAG
# Mast/stem cell growth factor receptor Kit (Homo sapiens), P10721 [L576P], sequence (P10721 whole entry L576P): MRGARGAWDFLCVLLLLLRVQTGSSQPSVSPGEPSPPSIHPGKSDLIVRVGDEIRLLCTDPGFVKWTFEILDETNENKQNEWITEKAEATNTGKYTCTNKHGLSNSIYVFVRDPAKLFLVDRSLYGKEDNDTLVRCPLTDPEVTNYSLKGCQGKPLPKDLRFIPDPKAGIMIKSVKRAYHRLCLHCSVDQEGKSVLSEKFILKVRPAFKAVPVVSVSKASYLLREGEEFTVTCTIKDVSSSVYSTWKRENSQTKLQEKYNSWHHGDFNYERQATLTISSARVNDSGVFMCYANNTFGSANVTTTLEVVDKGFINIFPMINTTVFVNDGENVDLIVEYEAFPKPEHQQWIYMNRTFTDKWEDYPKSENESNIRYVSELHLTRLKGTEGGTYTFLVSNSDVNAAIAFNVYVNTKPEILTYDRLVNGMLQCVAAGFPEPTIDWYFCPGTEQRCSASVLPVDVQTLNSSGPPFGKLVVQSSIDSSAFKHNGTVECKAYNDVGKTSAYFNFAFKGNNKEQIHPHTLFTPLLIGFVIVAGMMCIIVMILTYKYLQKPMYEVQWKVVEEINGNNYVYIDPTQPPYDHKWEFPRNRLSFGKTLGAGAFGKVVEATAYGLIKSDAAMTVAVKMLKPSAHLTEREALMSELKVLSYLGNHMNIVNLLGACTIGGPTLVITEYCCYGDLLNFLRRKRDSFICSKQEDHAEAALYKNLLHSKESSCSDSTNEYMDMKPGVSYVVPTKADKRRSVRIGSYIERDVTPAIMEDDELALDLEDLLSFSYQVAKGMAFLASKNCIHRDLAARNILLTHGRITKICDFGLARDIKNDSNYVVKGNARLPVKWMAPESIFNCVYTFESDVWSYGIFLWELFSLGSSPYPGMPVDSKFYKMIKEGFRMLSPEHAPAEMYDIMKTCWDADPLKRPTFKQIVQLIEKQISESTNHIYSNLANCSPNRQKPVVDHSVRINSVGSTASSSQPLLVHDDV
structure (smiles),measurement,setting,value
CN(C)C/C=C/C(=O)Nc1ccc(C(=O)N2CCCC(Nc3ncc(Cl)c(-c4c[nH]c5ccccc45)n3)C2)cc1 (centres undefined),% of control,[1],89%
COCCN1CCC(c2cc(CN(C)C(=O)c3cccc(Oc4ccccc4)c3)ccn2)CC1,% activity,[2],90%
CN(C)CCOc1ccc(-c2nc(-c3ccncc3)c(-c3ccc4c(c3)CC/C4=N\O)[nH]2)cc1,% of control,[3],100%
O[C@H]1CC[C@H](Nc2ncc3nc(Nc4c(F)cc(F)cc4F)n([C@H]4CCOC4)c3n2)CC1,% of control,[4],95%
N#Cc1cccc(-c2c[nH]c3ncnc(N4CCOCC4)c23)c1,% of inhibition,[5],17%
CC[C@@H]1[C@H](F)C(=O)N[C@@H]1COc1nccc2cc(C(N)=O)c(OC)cc12 [ZIMLOVISERTIB],% of inhibition,[6]; at 0.01 µM,1.5%
same,% of inhibition,[6]; at 0.04 µM,4%
same,% of inhibition,[6]; at 0.2 µM,2.3%
same,% of inhibition,[6]; at 1 µM,12.6%
same,% of inhibition,[6]; at 5 µM,19.4%
C=CC(=O)Nc1cccc(C(=O)Nc2ccc(Nc3cc(-c4[nH]c(SC)nc4C)ccn3)cc2)c1,% of control,[7]; at 1 µM,80%
same,% of control,[7]; at 5 µM,52%
CCC(=O)N1CCN(c2ccc(-n3c(=O)ccc4cnc5ccc(-c6cnc7ccccc7c6)cc5c43)cc2C(F)(F)F)CC1,% of control,[8],74%
Cc1cc(F)c(C(=O)Nc2cccc(-c3nncn3C(C)C)n2)cc1-n1cnc(C2CC2)c1,% of control,[9],100%
